Key:
[1] = biological target: T1, Alpha-2A adrenergic receptor (Homo sapiens, UniProt P08913); type: cell membranes, Sf9, Membrane; note: in other assays of this panel Not Active means under 50% inhibition at 10 µM
T1 sequence (P08913 whole entry): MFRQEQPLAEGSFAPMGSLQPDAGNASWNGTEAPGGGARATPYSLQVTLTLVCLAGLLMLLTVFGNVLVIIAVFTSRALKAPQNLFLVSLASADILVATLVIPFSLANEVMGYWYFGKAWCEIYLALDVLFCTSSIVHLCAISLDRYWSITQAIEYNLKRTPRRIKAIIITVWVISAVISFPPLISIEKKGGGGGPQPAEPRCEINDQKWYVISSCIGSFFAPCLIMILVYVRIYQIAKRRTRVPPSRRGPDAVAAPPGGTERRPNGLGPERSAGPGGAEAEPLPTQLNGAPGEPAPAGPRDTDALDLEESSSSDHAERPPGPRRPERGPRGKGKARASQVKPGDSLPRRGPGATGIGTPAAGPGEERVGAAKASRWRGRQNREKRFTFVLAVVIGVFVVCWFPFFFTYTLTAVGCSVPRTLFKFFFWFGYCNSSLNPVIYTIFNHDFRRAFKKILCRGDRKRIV

Acetylcholinesterase = Acetylcholinesterase (Homo sapiens, UniProt P22303); assay: DRUGMATRIX: Acetylcholinesterase enzyme inhibition (substrate: acetylthiocholine); type: cell-based, HEK293; conditions: hek293; Not Active = under 50% inhibition at 10 µM
Chain of Acetylcholinesterase (P22303 whole entry): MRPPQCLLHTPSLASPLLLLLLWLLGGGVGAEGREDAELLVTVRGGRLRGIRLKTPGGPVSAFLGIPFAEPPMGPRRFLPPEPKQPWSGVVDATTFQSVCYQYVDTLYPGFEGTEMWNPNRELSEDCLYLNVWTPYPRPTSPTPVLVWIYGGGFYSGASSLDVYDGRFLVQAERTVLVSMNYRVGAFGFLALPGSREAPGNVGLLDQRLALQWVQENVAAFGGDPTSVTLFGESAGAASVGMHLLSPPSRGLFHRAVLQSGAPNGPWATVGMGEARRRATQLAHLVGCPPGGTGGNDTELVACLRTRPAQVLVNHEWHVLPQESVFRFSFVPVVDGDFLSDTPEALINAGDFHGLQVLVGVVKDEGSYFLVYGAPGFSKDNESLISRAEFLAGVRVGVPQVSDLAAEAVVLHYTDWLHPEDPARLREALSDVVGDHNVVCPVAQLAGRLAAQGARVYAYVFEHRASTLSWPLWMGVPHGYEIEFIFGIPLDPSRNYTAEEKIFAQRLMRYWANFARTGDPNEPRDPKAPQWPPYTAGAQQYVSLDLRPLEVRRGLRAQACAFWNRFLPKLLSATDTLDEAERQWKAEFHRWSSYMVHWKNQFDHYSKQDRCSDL

[2] = biological target: Protein phosphatase 3 catalytic subunit alpha (Homo sapiens, UniProt Q08209); design: species or system Escherichia coli;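 note: inhibition of calcineurin (PP2B) enzyme activity, measured with DiFMUP as the substrate; in other assays of this panel Not Active means under 50% inhibition at 10 µM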
[3] = DRUGMATRIX: Leukotriene, BLT (LTB4) radioligand binding (ligand: [3H]LTB4); type: cell membranes, Membrane; conditions: u-937; Not Active = under 50% inhibition at 10 µM
[4] = biological target: T2, Vasoactive intestinal polypeptide receptor 1 (Homo sapiens, UniProt P32241); type: cell membranes, Membrane; conditions: ht-29; note: in other assays of this panel Not Active means under 50% inhibition at 10 µM
T2 sequence (P32241 whole entry): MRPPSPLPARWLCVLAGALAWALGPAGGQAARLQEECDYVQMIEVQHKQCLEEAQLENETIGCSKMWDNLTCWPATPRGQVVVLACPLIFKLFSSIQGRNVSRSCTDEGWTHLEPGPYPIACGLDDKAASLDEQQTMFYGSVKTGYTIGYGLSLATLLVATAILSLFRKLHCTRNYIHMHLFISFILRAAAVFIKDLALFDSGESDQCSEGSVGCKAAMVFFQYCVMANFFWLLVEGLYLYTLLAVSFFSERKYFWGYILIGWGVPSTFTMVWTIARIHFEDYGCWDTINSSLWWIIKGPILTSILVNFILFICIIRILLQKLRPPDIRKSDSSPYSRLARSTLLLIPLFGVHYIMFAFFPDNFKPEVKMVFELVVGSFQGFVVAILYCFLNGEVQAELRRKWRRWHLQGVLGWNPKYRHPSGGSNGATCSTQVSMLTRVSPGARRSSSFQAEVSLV

[5] = biological target: cGMP-specific 3',5'-cyclic phosphodiesterase (Homo sapiens, UniProt O76074); assay: DRUGMATRIX: Phosphodiesterase PDE5 enzyme inhibition (substrate: [3H]cGMP + cGMP); type: tissue-based, Platelet; conditions: platelet; Not Active = under 50% inhibition at 10 µM
[6] = biological target: T3, Type-2 angiotensin II receptor (Homo sapiens, UniProt P50052); type: cell-based; conditions: cho-k1; note: in other assays of this panel Not Active means under 50% inhibition at 10 µM
T3 sequence (P50052 whole entry): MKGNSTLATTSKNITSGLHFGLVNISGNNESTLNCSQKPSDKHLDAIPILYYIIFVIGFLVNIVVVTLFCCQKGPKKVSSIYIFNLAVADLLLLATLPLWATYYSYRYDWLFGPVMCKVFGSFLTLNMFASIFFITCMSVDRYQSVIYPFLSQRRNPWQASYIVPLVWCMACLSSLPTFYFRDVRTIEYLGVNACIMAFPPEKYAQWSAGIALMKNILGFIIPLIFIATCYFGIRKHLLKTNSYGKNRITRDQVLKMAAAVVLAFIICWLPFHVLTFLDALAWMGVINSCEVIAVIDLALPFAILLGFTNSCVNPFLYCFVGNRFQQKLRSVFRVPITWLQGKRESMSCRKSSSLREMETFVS

Compound	IC50 ([1]; sf9)	Ki ([1]; sf9)	IC50 (Acetylcholinesterase)	Ki (Acetylcholinesterase)	IC50 [2]	Ki [2]	IC50 [3]	Ki [3]	IC50 [4]	Ki [4]	IC50 [5]	Ki [5]	IC50 [6]	Ki [6]	IC50 ([1]; read-out: IC50)	Ki ([1]; read-out: Ki)
GADOPENTETATE DIMEGLUMINE	Not Active	Not Active	Not Active	Not Active	Not Active	Not Active	Not Active	Not Active	Not Active	Not Active	Not Active	Not Active	Not Active	Not Active	–	–
C#CC1(O)CC[C@H]2[C@@H]3CCC4=CC(=O)CC[C@@H]4[C@H]3CC[C@@]21CC (stereo not given in full) [NORGESTREL]	Not Active	–	Not Active	–	Not Active	–	Not Active	Not Active	Not Active	–	Not Active	–	Not Active	–	–	–
C[n+]1ccc(-c2cc[n+](C)cc2)cc1.[Cl-].[Cl-] [PARAQUAT DICHLORIDE]	Not Active	–	Not Active	–	Not Active	–	Not Active	Not Active	Not Active	–	Not Active	–	Not Active	–	–	–
C[C@@H]1CC[C@@]2(OC1)O[C@H]1[C@@H](O)[C@H]3[C@@H]4CC[C@H]5C[C@@H](O[C@@H]6O[C@H](CO)[C@H](O[C@@H]7O[C@H](CO)C(O)[C@H](O[C@@H]8OC[C@@H](O)[C@H](O)[C@H]8O)[C@H]7O[C@@H]7O[C@H](CO)[C@H](O)[C@H](O[C@@H]8O[C@H](CO)[C@@H](O)[C@H](O)[C@H]8O)[C@H]7O)[C@H](O)[C@H]6O)[C@H](O)C[C@]5(C)[C@H]4CC[C@]3(C)[C@H]1[C@@H]2C (stereo not given in full) [DIGITONIN]	Not Active	–	Not Active	–	Not Active	–	Not Active	Not Active	Not Active	–	Not Active	–	Not Active	–	–	–
O=C1CN=C(c2ccccc2Cl)c2cc([N+](=O)[O-])ccc2N1 [CLONAZEPAM]	Not Active	–	Not Active	–	Not Active	–	Not Active	Not Active	Not Active	–	Not Active	–	Not Active	–	–	–
C[C@@H](CO)NC(=O)[C@@H]1C=C2c3cccc4[nH]cc(c34)C[C@H]2N(C)C1 [ERGONOVINE]	–	–	Not Active	–	Not Active	–	Not Active	Not Active	Not Active	–	Not Active	–	Not Active	–	1.68 µM	0.63 µM
CCn1cc(C(=O)O)c(=O)c2cnc(N3CCCC3)nc21 [PIROMIDIC ACID]	Not Active	–	Not Active	–	Not Active	–	Not Active	Not Active	Not Active	–	Not Active	–	Not Active	–	–	–
C[C@@H]1C[C@H]2[C@@H]3CCC4=CC(=O)C=C[C@]4(C)[C@@]3(F)[C@@H](O)C[C@]2(C)[C@H]1C(=O)CO [DESOXIMETASONE]	Not Active	–	Not Active	–	Not Active	–	Not Active	Not Active	Not Active	–	Not Active	–	Not Active	–	–	–
CN(C)CC[C@@H](c1ccc(Cl)cc1)c1ccccn1 [DEXCHLORPHENIRAMINE]	–	–	Not Active	–	Not Active	–	Not Active	Not Active	Not Active	–	Not Active	–	Not Active	–	20.3 µM	7.62 µM
